# Source: patent US10597388B2, “Pyridazinone herbicides” (FMC CORPORATION, priority 2014, dated 2020)
# Columns and labels:
# Format in all cases: in vivo
# [1] = test system: barnyardgrass (Echinochloa crus-galli); assay: Test A greenhouse herbicide test, pre- and postemergence
# Procedure, shortened: (§1)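 Seeds in loam–sand blend received a preemergence directed soil spray; plants at 2–10 cm, one- to two-leaf stage, received postemergence sprays. Compounds in a non-phytotoxic solvent with surfactant. After about 10 d in a greenhouse, injury rated visually versus untreated controls on a 0–100 scale (100 = complete control).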
# kochia (Kochia scoparia) = assay: as above
# Procedure, shortened: as §1
# [2] = test system: foxtail, giant (giant foxtail, Setaria faberii); assay: Test C greenhouse herbicide test, pre- and postemergence
# Procedure, shortened: (§2)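 Seeds sown in loam–sand blend treated preemergence; plants in peat-based medium sprayed postemergence at 2–18 cm (1- to 4-leaf stage); chemicals in non-phytotoxic solvent with surfactant. Greenhouse 13–15 d, then visual rating versus controls on 0–100 scale (0 no effect, 100 complete control).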
# [3] = test system: johnsongrass (Sorghum halepense); assay: as above
# Procedure, shortened: as §2
# [4] = test system: crabgrass, large (large crabgrass, Digitaria sanguinalis); assay: as above
# Procedure, shortened: as §2
# [5] = test system: lambsquarters (Chenopodium album); assay: as above
# Procedure, shortened: as §2
# [6] = test system: waterhemp (common waterhemp, Amaranthus rudis); assay: as above
# Procedure, shortened: as §2
# corn (Zea mays) = assay: as above
# Procedure, shortened: as §2
# [7] = test system: morningglory (Ipomoea coccinea); assay: as above
# Procedure, shortened: as §2
# [8] = test system: oilseed rape (Brassica napus); assay: as above
# Procedure, shortened: as §2
# [9] = test system: wheat (winter wheat, Triticum aestivum); assay: as above
# Procedure, shortened: as §2
# [10] = Postemergence, 125 g ai/ha, 0 to 100 scale where 0 is no effect and 100 is complete control
# [11] = Postemergence, 500 g ai/ha, 0 to 100 scale, 0 is no effect, 100 is complete control
# [12] = Preemergence, 125 g ai/ha, 0 to 100 scale where 0 is no effect and 100 is complete control
# [13] = Preemergence, 500 g ai/ha, 0 to 100 scale, 0 no effect, 100 complete control
# [14] = Postemergence, 31 g ai/ha, 0 to 100 scale (0 no effect, 100 complete control)
# [15] = Postemergence, 125 g ai/ha, scale 0 to 100, 0 is no effect, 100 is complete control
# [16] = Postemergence, 250 g ai/ha, scale 0 to 100, 0 no effect, 100 complete control, 13 to 15 d
# [17] = Preemergence, 31 g ai/ha, scale 0 to 100, 0 is no effect, 100 is complete control
# [18] = Preemergence, 62 g ai/ha, scale 0 to 100, 0 is no effect, 100 is complete control
# [19] = Preemergence, 125 g ai/ha, scale 0 to 100, 0 is no effect, 100 is complete control
# [20] = Preemergence, 250 g ai/ha, scale 0 to 100, 0 no effect, 100 complete control
# [21] = postemergence, 62 g ai/ha, scale 0 to 100, 0 no effect, 100 complete control
smiles,measurement,setting,value
Cc1nn(C)c(=O)c(-c2ccc(F)c3ccccc23)c1O [Compound 41],"Plant response rating, Barnyardgrass",[1]; [10],30
same,Barnyardgrass plant response rating,[1]; [11],90
same,Barnyardgrass plant response rating,[1]; [12],20
same,"Plant response rating, Barnyardgrass",[1]; [13],90
same,"Plant response rating, Kochia",kochia (Kochia scoparia); [10],100
same,Kochia plant response rating,kochia (Kochia scoparia); [11],100
same,Kochia plant response rating,kochia (Kochia scoparia); [12],90
same,"Plant response rating, Kochia",kochia (Kochia scoparia); [13],100
same,"Foxtail, Giant plant response rating",[2]; [14],15
same,"Plant response rating, Foxtail, Giant",[2]; [15],30
same,"Plant response rating, Foxtail, Giant",[2]; [16],65
same,"Plant response rating, Foxtail, Giant",[2]; [17],45
same,"Plant response rating, Foxtail, Giant",[2]; [18],80
same,"Plant response rating, Foxtail, Giant",[2]; [19],85
same,"Foxtail, Giant plant response rating",[2]; [20],85
same,"Foxtail, Giant plant response rating",[2]; [21],15
same,Johnsongrass plant response rating,[3]; [14],5
same,"Plant response rating, Johnsongrass",[3]; [15],10
same,"Plant response rating, Johnsongrass",[3]; [16],35
same,"Plant response rating, Johnsongrass",[3]; [17],0
same,"Plant response rating, Johnsongrass",[3]; [18],50
same,"Plant response rating, Johnsongrass",[3]; [19],35
same,Johnsongrass plant response rating,[3]; [20],35
same,Johnsongrass plant response rating,[3]; [21],10
same,"Crabgrass, Large plant response rating",[4]; [14],5
same,"Plant response rating, Crabgrass, Large",[4]; [15],25
same,"Plant response rating, Crabgrass, Large",[4]; [16],35
same,"Plant response rating, Crabgrass, Large",[4]; [17],30
same,"Plant response rating, Crabgrass, Large",[4]; [18],35
same,"Plant response rating, Crabgrass, Large",[4]; [19],65
same,"Crabgrass, Large plant response rating",[4]; [20],70
same,"Crabgrass, Large plant response rating",[4]; [21],10
same,Lambsquarters plant response rating,[5]; [14],90
same,"Plant response rating, Lambsquarters",[5]; [15],95
same,"Plant response rating, Lambsquarters",[5]; [16],98
same,"Plant response rating, Lambsquarters",[5]; [17],75
same,"Plant response rating, Lambsquarters",[5]; [18],90
same,"Plant response rating, Lambsquarters",[5]; [19],100
same,Lambsquarters plant response rating,[5]; [20],90
same,Lambsquarters plant response rating,[5]; [21],95
same,Waterhemp plant response rating,[6]; [14],75
same,"Plant response rating, Waterhemp",[6]; [15],90
same,"Plant response rating, Waterhemp",[6]; [16],85
same,"Plant response rating, Waterhemp",[6]; [17],85
same,"Plant response rating, Waterhemp",[6]; [18],95
same,"Plant response rating, Waterhemp",[6]; [19],100
same,Waterhemp plant response rating,[6]; [20],100
same,Waterhemp plant response rating,[6]; [21],75
same,Corn plant response rating,corn (Zea mays); [14],5
same,"Plant response rating, Corn",corn (Zea mays); [15],10
same,"Plant response rating, Corn",corn (Zea mays); [16],20
same,"Plant response rating, Corn",corn (Zea mays); [17],0
same,"Plant response rating, Corn",corn (Zea mays); [18],0
same,"Plant response rating, Corn",corn (Zea mays); [19],5
same,Corn plant response rating,corn (Zea mays); [20],40
same,Corn plant response rating,corn (Zea mays); [21],5
same,Morningglory plant response rating,[7]; [14],95
same,"Plant response rating, Morningglory",[7]; [15],100
same,"Plant response rating, Morningglory",[7]; [16],98
same,"Plant response rating, Morningglory",[7]; [17],85
same,"Plant response rating, Morningglory",[7]; [18],95
same,"Plant response rating, Morningglory",[7]; [19],95
same,Morningglory plant response rating,[7]; [20],98
same,Morningglory plant response rating,[7]; [21],95
same,Oilseed Rape plant response rating,[8]; [14],0
same,"Plant response rating, Oilseed Rape",[8]; [15],5
same,"Plant response rating, Oilseed Rape",[8]; [16],0
same,"Plant response rating, Oilseed Rape",[8]; [17],5
same,"Plant response rating, Oilseed Rape",[8]; [18],50
same,"Plant response rating, Oilseed Rape",[8]; [19],40
same,Oilseed Rape plant response rating,[8]; [20],100
same,Oilseed Rape plant response rating,[8]; [21],0
same,Wheat plant response rating,[9]; [14],10
same,"Plant response rating, Wheat",[9]; [15],30
same,"Plant response rating, Wheat",[9]; [16],5
same,"Plant response rating, Wheat",[9]; [17],0
same,"Plant response rating, Wheat",[9]; [18],5
same,"Plant response rating, Wheat",[9]; [19],50
same,Wheat plant response rating,[9]; [20],65
same,Wheat plant response rating,[9]; [21],0
